# Like-named read-outs stand apart in the source and are kept apart here.
# Key:
# [1] = target: GDP-bound KRAS wild-type protein (Homo sapiens, UniProt P01116); assay: Binding to KRAS by surface plasmon resonance (SPR), Single Cycle Kinetics
# [2] = target: GDP-bound HRAS wild-type protein (Homo sapiens, UniProt P01112); assay: Binding to HRAS by surface plasmon resonance (SPR), Single Cycle Kinetics; conditions: for HRAS/KRAS (ratio of KD value with respect to GDP-bound HRAS wild-type protein to KD value with respect to KRAS): SPR KD ratio HRAS/KRAS, class symbols; for HRAS/KRAS (ratio of KD value for HRAS to KD value for KRAS): GDP-bound HRAS wild-type protein vs GDP-bound KRAS wild-type protein
# [3] = target: GDP-bound NRAS wild-type protein (Homo sapiens, UniProt P01111); assay: Binding to NRAS by surface plasmon resonance (SPR), Single Cycle Kinetics; conditions: for NRAS/KRAS (ratio of KD value with respect to GDP-bound NRAS wild-type protein to KD value with respect to KRAS): SPR KD ratio NRAS/KRAS, class symbols; for NRAS/KRAS (ratio of KD value for NRAS to KD value for KRAS): GDP-bound NRAS wild-type protein vs GDP-bound KRAS wild-type protein
# [4] = system: human lung cancer strain NCI-H441;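 also: cell proliferation inhibition after four days measured by CellTiter-Glo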
# [5] = SPR Single Cycle Kinetics, GDP-bound KRAS wild-type protein, 1:1 binding model, read-out: KRAS KD
# [6] = SPR, Single Cycle Kinetics, 1:1 binding model, GDP-bound KRAS wild-type protein, read-out: KRAS KD
# [7] = SPR, Single Cycle Kinetics, GDP-bound KRAS wild-type protein, read-out: KRAS KD
# Sequence of GDP-bound NRAS wild-type protein (P01111 whole entry): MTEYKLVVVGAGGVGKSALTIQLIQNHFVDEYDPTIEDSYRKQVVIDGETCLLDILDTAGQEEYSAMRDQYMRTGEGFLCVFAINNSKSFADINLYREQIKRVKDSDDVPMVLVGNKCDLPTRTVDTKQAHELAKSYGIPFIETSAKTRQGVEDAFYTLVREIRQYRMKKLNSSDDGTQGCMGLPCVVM
# Sequence of GDP-bound KRAS wild-type protein (P01116 whole entry): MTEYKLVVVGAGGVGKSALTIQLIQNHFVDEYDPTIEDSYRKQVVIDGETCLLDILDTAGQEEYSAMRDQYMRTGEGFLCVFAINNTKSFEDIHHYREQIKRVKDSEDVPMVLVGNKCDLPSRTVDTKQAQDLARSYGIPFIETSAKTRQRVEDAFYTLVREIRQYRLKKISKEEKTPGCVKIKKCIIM
# Sequence of GDP-bound HRAS wild-type protein (P01112 whole entry): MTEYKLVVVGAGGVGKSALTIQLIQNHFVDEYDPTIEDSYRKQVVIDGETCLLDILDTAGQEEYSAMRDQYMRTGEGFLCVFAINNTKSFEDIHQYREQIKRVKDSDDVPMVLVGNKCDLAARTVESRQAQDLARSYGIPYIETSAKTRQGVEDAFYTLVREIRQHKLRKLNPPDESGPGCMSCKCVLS
SMILES,"Kd [1, 5]",HRAS/KRAS (ratio of KD value with respect to GDP-bound HRAS wild-type protein to KD value with respect to KRAS) [2],NRAS/KRAS (ratio of KD value with respect to GDP-bound NRAS wild-type protein to KD value with respect to KRAS) [3],IC50 [4],"Kd [1, 6]","HRAS/KRAS (ratio of KD value for HRAS to KD value for KRAS) ([2]; SPR, KD ratio class)","NRAS/KRAS (ratio of KD value for NRAS to KD value for KRAS) ([3]; SPR, KD ratio class)","Kd [1, 7]",further results
CC[C@H](C)[C@@H]1NC(=O)[C@H](COC)N(C)C(=O)C[C@@H](C(=O)N(C)C)N(C)C(=O)[C@H](C2CCCCC2)N(C)C(=O)C2(CC(C)(C)C2)NC(=O)[C@@H]2C[C@@H](OC(C)C)CN2C(=O)[C@H](CCc2cc(F)c(C(F)(F)F)c(F)c2)NC(=O)CN(C)C(=O)[C@H](Cc2ccc(C)cc2)N2CC/C=C\C[C@@H](C2=O)N(C)C(=O)CN(C)C1=O [PP2660],0.18 nM,A (a compound having 10 or more and less than 20 is denoted as A),A (a compound having 10 or more and less than 20 is denoted as A),14.3 nM,,,,,
CCO[C@@H]1C[C@H]2C(=O)NC3(CC(C)(C)C3)C(=O)N(C)[C@@H](C3CCCC3)C(=O)N(C)[C@H](C(=O)N(C)C)CC(=O)N(C)[C@@H](CC(C)C)C(=O)N[C@@H]([C@@H](C)CC)C(=O)N(C)CC(=O)N(C)[C@H]3C/C=C\CCN(C3=O)[C@@H](Cc3ccc(C(F)(F)F)cc3)C(=O)N(C)CC(=O)N[C@@H](CCc3ccc(C(F)(F)F)c(OC)c3)C(=O)N2C1 [PP1562],,,,1.7 nM,0.046 nM,A (a compound having 10 or more and less than 20 is denoted as A),A (a compound having 10 or more and less than 20 is denoted as A),,
CCO[C@@H]1C[C@H]2C(=O)NC3(CCC3)C(=O)N(C)[C@@H](C3CCCC3)C(=O)N(C)[C@H](C(=O)N(C)C)CC(=O)N(C)[C@@H](CC(C)C)C(=O)N[C@@H]([C@@H](C)CC)C(=O)N(C)CC(=O)N(C)[C@H]3C/C=C\CCN(C3=O)[C@@H](Cc3ccc(F)cc3)C(=O)N(C)CC(=O)N[C@@H](CCc3ccc(Cl)c(Cl)c3)C(=O)N2C1 [PP1482],,,,76.4 nM,0.45 nM,B (a compound having 3 or more and less than 10 is denoted as B),A (a compound having 10 or more and less than 20 is denoted as A),,
"CCC[C@H]1C(=O)N[C@@H]([C@@H](C)CC)C(=O)N(C)CC(=O)N(C)[C@H]2C/C=C\CCN(C2=O)[C@@H](Cc2ccc(C)cc2)C(=O)N(C)CC(=O)N[C@@H](CCc2cc(F)c(C(F)(F)F)c(F)c2)C(=O)N2C[C@H](OCC)C[C@H]2C(=O)N(C)C2(CCC2)C(=O)N(C)[C@@H](C2CCCC2)C(=O)N(C)[C@H](C(=O)N2CCCCC2)CC(=O)N1C [PP3119, (2S,8S,12R,14S,20S,23S,27S,30S,36S,38Z)-20-cyclopentyl-8-[2-[3,5-difluoro-4-(trifluoromethyl)phenyl]ethyl]-12-ethoxy-4,16,19,22,26,32,35-heptamethyl-30-[(1S)-1-methylpropyl]-23-(piperidine-1-carbonyl)-27-propyl-2-(p-tolylmethyl)spiro[1,4,7,10,16,19,22,26,29,32,35-undecazatricyclo[34.5.1.0^10,14]dotetracont-38-ene-17,1′-cyclobutane]-3,6,9,15,18,21,25,28,31,34,42-undecone]",,,,,,,,0.09 nM,"Kd ([1]; SPR, Single Cycle Kinetics, 1:1 binding model, read-out: KD value with respect to GDP-bound KRAS wild-type protein): 0.09 nM; HRAS/KRAS (ratio of KD value for HRAS to KD value for KRAS) ([2]; SPR): A (a compound having 10 or more and less than 20 is denoted as A); ratio of the KD value with respect to GDP-bound HRAS wild-type protein to the KD value with respect to KRAS ([2]; SPR, KD(HRAS)/KD(KRAS)): A (a compound having 10 or more and less than 20 is denoted as A); NRAS/KRAS (ratio of KD value for NRAS to KD value for KRAS) ([3]; SPR): A (a compound having 10 or more and less than 20 is denoted as A); ratio of the KD value with respect to GDP-bound NRAS wild-type protein to the KD value with respect to KRAS ([3]; SPR, KD(NRAS)/KD(KRAS)): A (a compound having 10 or more and less than 20 is denoted as A); IC50 ([4]; read-out: NCI-H441 cell proliferation inhibitory activity, 50% proliferation inhibitory concentration (IC50 value), NCI-H441, four days, CellTiter-Glo): 3.5 nM"
CCO[C@@H]1C[C@H]2C(=O)NC3(CCC3)C(=O)N(C)[C@@H](C(CC)CC)C(=O)N(C)[C@H](C(=O)N(C)C)CC(=O)N(C)[C@@H](COC)C(=O)N[C@@H]([C@@H](C)CC)C(=O)N(C)CC(=O)N(C)[C@H]3C/C=C\CCN(C3=O)[C@@H](Cc3ccc(C(F)(F)F)cc3)C(=O)N(C)CC(=O)N[C@@H](CCc3ccc(C(F)(F)F)c(OC)c3)C(=O)N2C1 [PP1213],,,,40.4 nM,0.18 nM,A (a compound having 10 or more and less than 20 is denoted as A),AA (a compound having 20 or more is denoted as AA),,
"CC[C@H](C)[C@@H]1NC(=O)[C@H](CC(C)C)N(C)C(=O)C[C@@H](C(=O)N(C)C)N(C)C(=O)[C@H](C2CCCC2)N(C)C(=O)C2(CCC2)NC(=O)[C@@H]2CCCN2C(=O)[C@H](CCc2cc(F)c(C(F)(F)F)c(F)c2)NC(=O)CN(C)C(=O)[C@H](Cc2ccc(C(F)(F)F)cc2)N2CC/C=C\C[C@@H](C2=O)N(C)C(=O)CN(C)C1=O [PP1272, (2S,8S,14S,20S,23S,27S,30S,36S,38Z)-20-cyclopentyl-8-[2-[3,5-difluoro-4-(trifluoromethyl)phenyl]ethyl]-27-isobutyl-N,N,4,19,22,26,32,35-octamethyl-30-[(1S)-1-methylpropyl]-3,6,9,15,18,21,25,28,31,34,42-undecaoxo-2-[[4-(trifluoromethyl)phenyl]methyl]spiro[1,4,7,10,16,19,22,26,29,32,35-undecazatricyclo[34.5.1.0^10,14]dotetracont-38-ene-17,1′-cyclobutane]-23-carboxamide]",,,,24 nM,0.11 nM,A (a compound having 10 or more and less than 20 is denoted as A),A (a compound having 10 or more and less than 20 is denoted as A),,
CCO[C@@H]1C[C@H]2C(=O)NC3(CC(C)(C)C3)C(=O)N(C)[C@@H](C(CC)CC)C(=O)N(C)[C@H](C(=O)N(C)C)CC(=O)N(C)[C@@H](CC3CC3)C(=O)N[C@@H]([C@@H](C)CC)C(=O)N(C)CC(=O)N(C)[C@H]3C/C=C\CCN(C3=O)[C@@H](CC3CCC(F)(F)CC3)C(=O)N(C)CC(=O)N[C@@H](CCc3cc(F)c(C(F)(F)F)c(F)c3)C(=O)N2C1 [PP2485],,,,55.5 nM,,,,0.78 nM,HRAS/KRAS (ratio of KD value for HRAS to KD value for KRAS) ([2]; SPR): A (a compound having 10 or more and less than 20 is denoted as A); NRAS/KRAS (ratio of KD value for NRAS to KD value for KRAS) ([3]; SPR): A (a compound having 10 or more and less than 20 is denoted as A)
CCO[C@@H]1C[C@H]2C(=O)NC3(CC(C)(C)C3)C(=O)N(C)[C@@H](C3CCCC3)C(=O)N(C)[C@H](C(=O)N(C)C)CC(=O)N(C)[C@@H](COC)C(=O)N[C@@H]([C@@H](C)CC)C(=O)N(C3CC3)CC(=O)N(C)[C@H]3C/C=C\CCN(C3=O)[C@@H](CC3CCCCC3)C(=O)N(C)CC(=O)N[C@@H](CCc3cc(F)c(C(F)(F)F)c(F)c3)C(=O)N2C1 [PP2562],0.91 nM,B (a compound having 3 or more and less than 10 is denoted as B),B (a compound having 3 or more and less than 10 is denoted as B),46.5 nM,,,,,
"CCO[C@@H]1C[C@H]2C(=O)NC3(CCC3)C(=O)N(C)[C@@H](C3CCCC3)C(=O)N(C)[C@H](C(=O)N(C)CC)CC(=O)N(C)[C@H]3CCCC/C=C/c4ccc(cc4)C[C@@H](C(=O)N(C)CC(=O)N[C@@H](CCc4cc(F)c(C(F)(F)F)c(F)c4)C(=O)N2C1)N1CC/C=C\C[C@@H](C1=O)N(C)C(=O)CN(C)C(=O)[C@H]([C@@H](C)CC)NC3=O [PP1827, (1S,7S,11R,13S,19S,22S,26S,29S,35S,37Z,47E)-19-cyclopentyl-7-[2-[3,5-difluoro-4-(trifluoromethyl)phenyl]ethyl]-11-ethoxy-N-ethyl-N,3,18,21,25,31,34-heptamethyl-29-[(1S)-1-methylpropyl]-2,5,8,14,17,20,24,27,30,33,55-undecaoxo-spiro[3,6,9,15,18,21,25,28,31,34,41-undecazapentacyclo[24.15.11.2^43,46.1^35,41.0^9,13]pentapentaconta-37,43(54),44,46(53),47-pentaene-16,1′-cyclobutane]-22-carboxamide]",,,,2.4 nM,,,,0.029 nM,"HRAS/KRAS (KD ratio) ([2]; ratio of KD for GDP-bound HRAS wild-type protein to KD for KRAS, SPR): A (a compound having 10 or more and less than 20 is denoted as A); NRAS/KRAS (KD ratio) ([3]; ratio of KD for GDP-bound NRAS wild-type protein to KD for KRAS, SPR): A (a compound having 10 or more and less than 20 is denoted as A)"
CCOC[C@H]1C(=O)N[C@@H]([C@@H](C)CC)C(=O)N(C2CC2)CC(=O)N(C)[C@@H]2C/C=C\CCN(C2=O)[C@@H](Cc2ccc(C)cc2)C(=O)N(C)CC(=O)N[C@@H](CCc2ccc(C(F)(F)F)c(OC)c2)C(=O)N2C[C@H](OCC)C[C@@H]2C(=O)NC2(CC(C)(C)C2)C(=O)N(C)[C@H](CC2CCC2)C(=O)N(C)[C@H](C(=O)N(C)C)CC(=O)N1C (stereo in doubt) [PP2760],4.8 nM,B (a compound having 3 or more and less than 10 is denoted as B),A (a compound having 10 or more and less than 20 is denoted as A),144 nM,,,,,

# — patent US20240158446A1, “CYCLIC COMPOUND HAVING SELECTIVE INHIBITORY ACTION ON KRAS OVER HRAS AND NRAS” (CHUGAI SEIYAKU KABUSHIKI KAISHA, priority 2021, published 2024)
